Data: patent US10696707B2, “Polyene macrolide derivative” (Shionogi & Co., Ltd., priority 2014, dated 2020)
Values after ≈ are worked out from the molar mass of the structure shown. Like-named read-outs stand apart in the source and are kept apart here. Values belong to the compound of their own block, whether it stands above or below them.

Key:
[1] = system: C. albicans ATCC90028; experiment: Antifungal activity test, MIC by broth microdilution (CLSI M27-A3); type: cell-based; conditions: C. albicans ATCC90028, broth microdilution, 35° C., 24-48 hours, 100% inhibition
Procedure, shortened: (§1)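 CLSI broth microdilution in RPMI 1640 with 2% glucose, 0.165 mol/L MOPS, pH 7.0; two-fold DMSO dilutions. MIC = lowest concentration giving 100% inhibition versus growth control.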

[2] = system: A. flavus ATCC204304; experiment: Antifungal activity test, MIC by broth microdilution (CLSI M38-A2); type: cell-based; conditions: A. flavus ATCC204304, broth microdilution, 35° C., 24-48 hours, 100% inhibition
Procedure, shortened: as §1

[3] = system: A. fumigatus ATCC204305; experiment: as above; type: cell-based; conditions: A. fumigatus ATCC204305, broth microdilution, 35° C., 24-48 hours, 100% inhibition
Procedure, shortened: as §1

[4] = system: HepG2 cells; type: cell-based; conditions: human, 71 h
Procedure: The Cytotoxicith of the compounds of the present invention was evaluated by measuting cell numbers automatically using the cell image analyzer, Toxinsight® (Thermofisher Scientific).
HepG2 cells were seeded in 384-well black plates (100000 cells/mL) and allowed to attach for approximately 24 hours at 37° C. in humidified CO2 incubator. Test compounds and positive control (Fungizone®) were initially dissolved as concentrated 20 mmol/L stock solutions in DMSO and added to culture medium, to the final concentration; 1.6, 3.1, 6.3, 12.5, 25, 50, 100 μmol/L. The negative control well was treated with DMSO alone. After exposure of each test compound for approximately 71 hours, each well were added with Hoechst 33342, for staining of nuclei, diluted in D-PBS to the final concentration; 1 μg/mL, and after that, fixed with 4% paraformaldehyde. The cell number, stained with Hoechst 33342, was counted by Toxinsight® (Thermofisher Scientific) in each well. The mean value of cell number and the standard deviation (SD) was calculated (N=4).

[5] = Test Example 4: nephrotoxicity, kidney marker gene expression by quantitative RT-PCR after intravenous administration; type: in vivo; conditions: mouse, kidney, mice, nephrotoxicity positive when ΔΔCt of two-third of target genes (Kim1, Timp1, Lcn2) >3
Procedure: The expression level of marker genes for nephrotoxicity was determined by quantitative RT-PCR to evaluate nephrotoxicity of the compound of the present invention. The compound of the present invention or vehicle was intravenously administered to mice and their kidneys were isolated. After removal of the kidney capsule, all of the kidneys were sliced into two equal halves, and stored at −80° C. in RNAlater® (Ambion) until use. Samples were disrupted and homogenized in QIAzol Lysis Reagent with TissueLyser (Qiagen), and total RNA was extracted using an RNeasy® Mini kit (Qiagen). Total RNA concentrations were determined to read OD260 by absorptiometer.
The level of expression of the following target genes was determined using one-step quantitative real-time PCR: Kim1, Timp1, and Lcn2. Total RNA (80 ng/2 μL) was used as the template, and TaqMan Gene Expression Assays (Applied Biosystems, for Haver1 (Kim1), assay ID: Mm00506686_m1; Timp1, Mm01341361_m1; Lcn2, Mm01324470_m1) or TaqMan Endogenous Controls (Gapdh, predesigned assay reagent supplied by ABI, Applied Biosystems) were employed as gene-specific probe and primer sets. Quantitative RT-PCR was performed using a QuantiTect™ Probe RT-PCR kit (Qiagen), and transcript levels were quantitated with an Applied Biosystems 7900HT Fast Real Time PCR System (Applied Biosystems). Reverse transcription and amplification conditions were set as follows: 50° C. for 30 min, 95° C. for 15 min, followed by 40 cycles at 95° C. for 15 s and 60° C. for 1 min. The resulting cycle threshold (Ct) value was processed based on the comparative Ct method (ΔΔCt Method), where Gapdh was used as an endogenous reference gene to normalize the expression level of target genes.
The ΔCt was calculated as follows: Ct, Gapdh−Ct, target gene.
The ΔΔCt was calculated as follows: ΔCt, treated sample−ΔCt, average of vehicle control sample.
Higher ΔΔCt values indicate higher expression rates of the target gene and therefore high risk for nephrotoxicity.

[6] = system: red blood cells (5% RBC suspension); experiment: Test Example 2-2: in vitro hemolytic activity test (upper limit 200 μmol/L); type: cell-based; conditions: 37° C., read-out: hemolysis IC50
Procedure: Nephrotoxic potentials of the compounds of the present invention whose X is —N(R^F)—CO—X^1 and X^1 is the group represented by formula (III) and T is —N(R^a5)— were investigated by in vitro hemolytic activity test under the condition that the upper limit was 200 μmol/L as the required concentration to 50% of hemolysis (IC50).
Defibrinated sterile blood was centrifuged at 700×g for 3 minutes and, and the supernatant was removed for 100% of red blood cells. After the cleaning with physiological saline, the washed blood cells was suspended in the medium (Earle's balanced salt sodium, bicarbonate, 0.1 g/L L-glutamine without phenol red), and was diluted by 5% (5% RBC suspension).
The washed blood was diluted by 5% in water for injection (solution of complete hemolysis), and was used as the indication of optical density for complete hemolysis.
The compounds of the present invention solution in DMSO (several and doubling dilutions starting from 10 mmol/L), DMSO as the negative control, and Amphotericin B as the positive control were used, and each 5 μL of these was added in to a well of V-form 96 well type microplate. Finally, the maximum concentration of the compounds of the present invention solution in DMSO was 200 μmol/L by adding 245 μL of the medium or 5% RBC suspension into the well.
Two hundred fifty μL of the solution of complete hemolysis was added into another well and the microplate was incubated at 37° C. in 5% of CO2 concentration for an hour.
After the incubation, each 100 μL of supernatants in wells was collected by centrifugation of the microplate at 300×g for 5 minutes and was located on a well of flat-form 96 well type microplate. An absorbance of each supernatant was measured at wavelength of 540 nm.
Percent hemolysis was calculated by using the followed equation. The required concentration to 50% of hemolysis (IC50) was calculated based on the percent hemolysis. […] Hemolysis (%)=(CR−VM)×100÷(VL−VR) Where:
CR: Absorbance of 5% RBC suspension incubated with the compounds of the present invention solution in DMSO
VM: Absorbance of medium incubated with the compounds of the present invention solution in DMSO
VL: Absorbance of solution of complete hemolysis
VR: Absorbance of 5% RBC suspension incubated with DMSO
The “>200” in the table means above IC50 value exceeded the upper concentration 200 μmol/L.

SMILES: C[C@@H]1[C@H](O)[C@@H](C)/C=C/C=C/C=C/C=C/C=C/C=C/C=C/[C@H](O[C@@H]2O[C@H](C)[C@@H](O)[C@H](N)[C@@H]2O)C[C@@H]2O[C@](O)(C[C@@H](O)C[C@@H](O)[C@H](O)CC[C@@H](O)C[C@@H](O)CC(=O)O[C@H]1C)C[C@H](O)[C@H]2NC(=O)NCCC(=O)O [AmBCU, reference compound]
MIC ([1]; Candida albicans, read-out: MIC): 0.5 µg/mL (≈ 0.495 µM) | MIC ([2]; Aspergillus flavus, read-out: MIC): 1 µg/mL (≈ 0.99 µM) | MIC ([3]; Aspergillus fumigatus, read-out: MIC): 1 µg/mL (≈ 0.99 µM) | cytotoxicity (lowest cytotoxicity concentration) [4]: 25.2 µmol/L | MTD [5]: 3 mg/kg

SMILES: C[C@@H]1[C@H](O)[C@@H](C)/C=C/C=C/C=C/C=C/C=C/C=C/C=C/[C@H](O[C@@H]2O[C@H](C)[C@@H](O)[C@H](N)[C@@H]2O)C[C@@H]2O[C@](O)(C[C@@H](O)C[C@@H](O)[C@H](O)CC[C@@H](O)C[C@@H](O)CC(=O)O[C@H]1C)C[C@H](O)[C@H]2NC(=O)NO [I-219]
MTD [5]: 16 mg/kg

SMILES: C[C@@H]1[C@H](O)[C@@H](C)/C=C/C=C/C=C/C=C/C=C/C=C/C=C/[C@H](O[C@@H]2O[C@H](C)[C@@H](O)[C@H](N)[C@@H]2O)C[C@@H]2O[C@](O)(C[C@@H](O)C[C@@H](O)[C@H](O)CC[C@@H](O)C[C@@H](O)CC(=O)O[C@H]1C)C[C@H](O)[C@H]2C(=O)O [AmB, Amphotericin B, reference compound]
IC50 ([6]; Erythrocyte, comparative example, hemolysis method 200 (upper limit 200 μmol/L), an hour): 1600 nM | cytotoxicity (lowest cytotoxicity concentration) [4]: <1.6 µmol/L | MTD [5]: 1 mg/kg

SMILES: C[C@@H]1[C@H](O)[C@@H](C)/C=C/C=C/C=C/C=C/C=C/C=C/C=C/[C@H](O[C@@H]2O[C@H](C)[C@@H](O)[C@H](NC(=N)N)[C@@H]2O)C[C@@H]2O[C@](O)(C[C@@H](O)C[C@@H](O)[C@H](O)CC[C@@H](O)C[C@@H](O)CC(=O)O[C@H]1C)C[C@H](O)[C@H]2CO [I-394]
MTD [5]: > 24 mg/kg

MIC [1]: 0.5 µg/mL (≈ 0.474 µM) | MIC [2]: 0.5 µg/mL (≈ 0.474 µM) | MIC [3]: 1 µg/mL (≈ 0.948 µM)
SMILES: C[C@@H]1[C@H](O)[C@@H](C)/C=C/C=C/C=C/C=C/C=C/C=C/C=C/[C@H](O[C@@H]2O[C@H](C)[C@@H](O)[C@H](N)[C@@H]2O)C[C@@H]2O[C@](O)(C[C@@H](O)C[C@@H](O)[C@H](O)CC[C@@H](O)C[C@@H](O)CC(=O)O[C@H]1C)C[C@H](O)[C@H]2NC(=O)NNC(=O)C[C@H](O)CO [I-237]
IC50 ([6]; Test Example 2-2, hemolysis method 200 (upper concentration 200 μmol/L), 5% RBC suspension, one hour): > 200000 nM
